pKi: −log10 of the molar value.
Columns and labels:
[1] = Test Example 8: Solubility test; type: physicochemical; settings: fassgf or other biorelevant, kinetic from dmso stock; 1% DMSO addition, artificial intestinal juice pH 6.8, 16 hours at 25° C.
Method: The solubility of a compound of the present invention was determined under 1% DMSO addition conditions. A 10 mmol/L solution of the compound was prepared with DMSO, and 6 μL of the solution of the compound of the present invention was added to 594 μL of an artificial intestinal juice (water and 118 mL of 0.2 mol/L NaOH reagent were added to 250 mL of 0.2 mol/L potassium dihydrogen phosphate reagent to reach 1000 mL) with a pH of 6.8. The mixture was left standing for 16 hours at 25° C., and the mixture was vacuum-filtered. The filtrate was two-fold diluted with methanol/water=1/1 (V/V), and the compound concentration in the filtrate was measured with HPLC or LC/MS/MS by the absolute calibration method.

[2] = molecular target: T1, human TRPV4 (hTRPV4/CHO cells) (Homo sapiens, UniProt Q9HBA0); assay: Test Example 4: TRPV4 inhibitory activity (Ki value), 4α-PDD stimulation, Fluo-3 calcium fluorescence (FDSS 3000); type: cell-based; settings: Test Example 4, 4α-PDD stimulation, read-out: Test 4 Ki
T1 construct: expressed in transfected cells; host or cells: CHO-K1
Summary of the method: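 hTRPV4/CHO-K1 cells loaded with 5 μmol/L Fluo-3 in HBSS/HEPES pH 7.5 with probenecid; compound (10 μmol/L to 0.5 nmol/L final, 10 points) added before 4α-PDD, fluorescence read 8 min at Ex 480/Em 540 nm. Max−Min signal normalised to 10 μM Ruthenium Red (100%) and no compound (0%); IC50 converted to Ki using 4α-PDD EC50.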

[3] = Test Example 9: Metabolism stability test; type: in vitro ADME; settings: human liver microsomes 0.5 mg protein/mL, 30 minutes at 37° C., NADPH, compound concentration 0.5 μmol/L
Method: Metabolism Stability Test
Using a commercially available pooled human hepatic microsomes, a compound of the present invention was reacted for a constant time, a remaining rate was calculated by comparing a reacted sample and an unreacted sample, thereby, a degree of metabolism in liver was assessed.
A reaction was performed (oxidative reaction) at 37° C. for 0 minute or 30 minutes in the presence of 1 mmol/L NADPH in 0.2 mL of a buffer (50 mmol/L Tris-HCl pH 7.4, 150 mmol/L potassium chloride, 10 mmol/L magnesium chloride) containing 0.5 mg protein/mL of human liver microsomes. After the reaction, 50 μL of the reaction mixture was added to 100 μL of a methanol/acetonitrile=1/1 (v/v), mixed and centrifuged at 3000 rpm for 15 minutes. The compound of the present invention in the supernatant was quantified by LC/MS/MS, and a remaining amount of the compound of the present invention after the reaction was calculated, letting a compound amount at 0 minute reaction time to be 100%. Hydrolysis reaction was performed in the absence of NADPH and glucuronidation reaction was in the presence of 5 mmol/L UDP-glucuronic acid in place of NADPH, followed by similar operations.
(Results) Compound concentration: 0.5 μmol/L

T1 sequence (Q9HBA0 whole entry): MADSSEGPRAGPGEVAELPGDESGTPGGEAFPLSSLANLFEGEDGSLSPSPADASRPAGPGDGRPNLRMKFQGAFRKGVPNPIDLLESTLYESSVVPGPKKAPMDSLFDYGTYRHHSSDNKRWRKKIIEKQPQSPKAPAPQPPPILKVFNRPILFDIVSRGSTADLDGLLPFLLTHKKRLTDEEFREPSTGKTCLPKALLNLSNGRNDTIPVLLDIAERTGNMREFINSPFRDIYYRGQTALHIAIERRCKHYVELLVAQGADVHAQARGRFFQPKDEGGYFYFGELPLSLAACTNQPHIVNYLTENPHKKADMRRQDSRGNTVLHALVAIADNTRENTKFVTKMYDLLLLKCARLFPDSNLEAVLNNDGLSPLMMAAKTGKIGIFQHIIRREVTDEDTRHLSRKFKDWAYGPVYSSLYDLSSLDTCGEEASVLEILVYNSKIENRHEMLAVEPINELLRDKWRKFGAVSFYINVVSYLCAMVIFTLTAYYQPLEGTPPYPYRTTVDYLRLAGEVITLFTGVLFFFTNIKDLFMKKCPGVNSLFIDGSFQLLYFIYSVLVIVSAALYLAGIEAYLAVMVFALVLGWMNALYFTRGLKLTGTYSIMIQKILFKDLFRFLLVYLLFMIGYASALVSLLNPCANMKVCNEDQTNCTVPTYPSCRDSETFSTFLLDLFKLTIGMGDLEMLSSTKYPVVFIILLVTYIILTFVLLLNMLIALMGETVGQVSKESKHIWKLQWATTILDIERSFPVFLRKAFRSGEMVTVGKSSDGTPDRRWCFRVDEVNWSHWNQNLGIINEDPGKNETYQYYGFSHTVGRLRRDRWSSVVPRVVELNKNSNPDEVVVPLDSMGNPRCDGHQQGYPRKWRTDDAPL

SMILES | solubility at 16 h [1] | pKi [2] | Metabolism stability: remaining amount of the compound after the reaction [3]
Cc1nc(C)c(-c2csc(NC(=O)C3CCC(F)(F)C3)n2)s1 (stereo not drawn) [Compound I-18] | > 50 µM | > 7.00 | 86.4%
Cc1nc(C)c(-c2csc(NC(=O)Cc3ccc(S(C)(=O)=O)cc3)n2)s1 [Compound I-17] | > 50 µM | 6.00 to 7.00 | 92.2%

— patent publication US20170066759A1, “AROMATIC 5-MEMBERED HETEROCYCLIC DERIVATIVE HAVING TRPV4-INHIBITING ACTIVITY” (Shionogi & Co., Ltd., priority 2012, published 2017)
